# Test results as given in patent US9446015B2, “Quinone based nitric oxide donating compounds for ophthalmic use” (NICOX SCIENCE IRELAND, priority 2012, dated 2016).
# Legend:
# [1] = tested on: hypertonic saline-induced IOP increase in rabbits; experiment: IOP lowering activity in hypertonic saline-induced IOP increase in rabbits; type: in vivo, New Zealand White rabbits
# From the text: Intraocular pressure (IOP) lowering activity in hypertonic saline-induced IOP increase in rabbits.
# This animal model of elevated IOP was used for assessing the intraocular pressure (IOP) lowering activities of some compounds of the invention, timolol, dorzolamide and 5-isosorbide mononitrate.
# • compounds (6), (20) and (25) • timolol and dorzolamide that are drugs commonly used for the treatment of glaucoma and ocular hypertension. • Isosorbide mononitrate (5-ISMN) that is a commonly used nitric oxide donor drug.
# (§1) Timolol, dorzolamide and 5-ISMN were tested as reference compounds. Adults male New Zealand White rabbits weighting 1.8-2.0 Kg were used in the experiments.
# IOP was measured using a Tono-Pen XL prior to hypertonic saline injection (basal) and at 30, 60, 120 and 240 min thereafter. Vehicle (5% cremophor-EL; 0.3% DMSO; 0.2 mg/ml BAK in PBS pH 6.0) and all the tested compounds dissolved in the vehicle were instilled as eye drops immediately after hypertonic saline injection. Eyes were randomly assigned to different treatment groups. Vehicle and the tested compounds were directly instilled into the conjunctiva pocket at the desired doses. One drop of 0.4% oxybuprocaine hydrochloride (Novesine, Sandoz) was instilled in each eye immediately before each set of pressure measurements.
# Results are reported in Table 6, the ocular hypotensive activities of the tested compounds are expressed as IOP change at 60 and 120 minutes after topical administration versus vehicle and versus the basal IOP.
# [2] = tested on: ocular normotensive New Zealand rabbits; experiment: IOP lowering activity in ocular normotensive New Zealand rabbits; type: in vivo, New Zealand White rabbits
# Procedure: Intraocular pressure (IOP) lowering activity in ocular normotensive New Zealand rabbits.
# • compound (6) • timolol that is a drug commonly used for the treatment of glaucoma and ocular hypertension. • Isosorbide mononitrate (5-ISMN) that is a commonly used nitric oxide donor drug.
# as §1
# IOP was measured using a pneumatonometer 30 CLASSIC™ before topical application (basal) and a different time point (30, 60, 120, 240 and 300 min) thereafter. Vehicle (5% cremophor-EL; 0.3% DMSO; 0.2 mg/ml BAK in PBS pH 6.0) or tested compounds dissolved in the vehicle were instilled as eye drops into the conjunctiva pocket. Eyes were randomly assigned to different treatment groups. One drop of 0.4% oxybuprocaine hydrochloride (Novesine, Sandoz) was instilled in each eye immediately before each set of pressure measurements.
# The test results are reported in Table 7, the ocular hypotensive activity is expressed as IOP changes at 30, 60, 120 and 300 minutes after topical administration versus vehicle and versus IOP at basal.
# [3] = tested on: endothelial-dependent vasodilation of rat aortas; experiment: Endothelial dysfunction evaluation, vascular response to acetylcholine; type: cell-based; conditions: 5-day treatment; 5-ISMN 30 mg/kg, Compound (6) 100 mg/kg
# Procedure: (§2) Thoracic aortas from male New Zealand rabbits or male Sprague Dawley (SD) were used. The aortas were placed immediately in Krebs-HEPES buffer (pH 7.4; composition mM: NaCl 130.0, KCl 3.7, NaHCO3 14.9, KH2PO4 1.2, MgSO4.7H2O 1.2, Glucose 11.0, HEPES 10.0, CaCl2.2H2O 1.6). Connective tissue was removed and aortas were cut into ring segments (4-5 mm in length). Each ring was placed in a 5 mL tissue bath filled with Krebs-HEPES buffer (37° C.) aerated with 95% O2 and 5% CO2 and was attached to a force transducer (Grass FT03), connected to a BIOPAC MP150 System for measurement of the isometric tension. Preparations were allowed to equilibrate for 1 h at a resting tension of 2 g for rabbit aortas and 1 g for rat aortas with changes of the buffer every 15 min. Then the rings were stimulated by exposure to 90 mM KCl (3 times) with intervening washings.
# (§3) Rat aorta. After equilibration, rat aortas were precontracted with KCl (90 mM) and, when the contraction was stable, a cumulative concentration-response curve to acetylcholine (ACh, 0.01-100 μM) was added. After washout, the rings were precontracted again with KCl (90 mM). When a steady-state level of contraction was obtained, a cumulative concentration-response curve to the tested compounds (0.01-100 μM) was obtained.
# (§4) Data analysis. Results are given as mean±SEM. Vascular responses are expressed as percentage relaxation and plotted vs concentration. The sensitivity of isolated aorta to different vasodilators is expressed as the concentration that elicited 50% of the maximal responses (EC50). Responses are quantified in terms of EC50 and Emax (maximal vasodilating effect) values, obtained from the concentration-response curve by nonlinear curve fitting, using GraphPad software.
# Endothelial-dependent vasodilation (vascular response to acetylcholine, ACh) was assessed following 5-day treatment with Compound (6) (100 mg/kg) or 5-ISMN (30 mg/kg). A relaxant response to ACh indicated the presence of a functional endothelium. The vascular response was performed as described in Example 6.
# [4] = tested on: isolated aortas from rats; experiment: Ex vivo tolerance evaluation, vascular response of isolated rat aortas; type: cell-based; conditions: 5-day oral treatment; 5-ISMN 30 mg/kg, Compound (6) 100 mg/kg
# Procedure: as §2, §3, §4
# Tolerance to nitrate was further investigated assessing the vascular effects of Compound (6) following repeated treatment compared with 5-ISMN. The vascular response to the compound itself was assessed on isolated aortas from rats orally treated for 5 days with Compound (6) (100 mg/kg). The vascular response was performed as described in Example 6.
# Vascular responses were performed 1 h (ISMN) or 3 h (Compound (6)) after the last administration, the concentrations of tested compound that elicited the 50% of the maximal responses (EC50) are shown in Table 4.
# [5] = 60 min after topical administration
# [6] = 120 min after topical administration
structure (smiles),measurement,setting,value
"COC1=C(OC)C(=O)C(CCCCCCCCCCO[N+](=O)[O-])=C(C)C1=O [Compound (6), 10-(4,5-dimethoxy-2-methyl-3,6-dioxocyclohexa-1,4-dienyl)decyl nitrate]","ΔΔ (mmHg), IOP change versus vehicle and versus basal IOP",[1]; [5],−7.4 ± 2.7 mmHg
same,"ΔΔ (mmHg), IOP change versus vehicle and versus basal IOP",[1]; [6],−9.8 ± 2.0 mmHg
same,"ΔΔ (mmHg), IOP change versus vehicle and versus IOP at basal",[2]; 30 min after topical administration,−1.8 ± 0.4 mmHg
same,"ΔΔ (mmHg), IOP change versus vehicle and versus IOP at basal",[2]; [5],−1.6 ± 0.3 mmHg
same,"ΔΔ (mmHg), IOP change versus vehicle and versus IOP at basal",[2]; [6],−1.3 ± 0.5 mmHg
same,"ΔΔ (mmHg), IOP change versus vehicle and versus IOP at basal",[2]; 300 min after topical administration,−1.5 ± 0.4 mmHg
same,effect on endothelial-dependent vasorelaxation (response to ACh),[3],did not modify endothelial-dependent vasorelaxation
same,vascular sensitivity of aortas of treated animals to the compound itself versus vehicle/control arteries,[4],showed the same sensitivity
